Numbers after ± are expanded uncertainties.
What was measured:
[1] = relative permittivity at various frequencies (dimensionless); xn = mol fraction of the nth substance listed; conditions: 99 kPa, Liquid, Frequency=2 MHz, Parallel plate capacitor, x1 = 1
[2] = refractive index (Na D-line) (dimensionless); xn = mol fraction of the nth substance listed; conditions: 99 kPa, Liquid, Abbe refractometer, x1 = 1
[3] = relative permittivity at various frequencies (dimensionless); conditions: 99 kPa, Liquid, Frequency=2 MHz, Parallel plate capacitor
[4] = refractive index (Na D-line) (dimensionless); conditions: 298.15 K; 101.33 kPa; Liquid; Abbe refractometer

CCCCCCC [heptane] + CCCCCl
relative permittivity ([1]; 283.15 K): 1.943 ± 0.019 | relative permittivity ([1]; 298.15 K): 1.923 ± 0.019 | relative permittivity ([1]; 313.15 K): 1.902 ± 0.019 | refractive index ([2]; 283.15 K): 1.3929 ± 0.00031 | refractive index ([2]; 298.15 K): 1.3852 ± 0.00031 | refractive index ([2]; 313.15 K): 1.37735 ± 0.00031

CCCCCC [hexane] + CCC(C)Cl
relative permittivity ([1]; 283.15 K): 1.905 ± 0.019 | relative permittivity ([1]; 298.15 K): 1.892 ± 0.019 | relative permittivity ([1]; 313.15 K): 1.873 ± 0.019 | refractive index ([2]; 283.15 K): 1.3805 ± 0.00031 | refractive index ([2]; 298.15 K): 1.37223 ± 0.00031 | refractive index ([2]; 313.15 K): 1.36391 ± 0.00031

CC(C)(C)Cl [2-chloro-2-methylpropane]
relative permittivity ([3]; 283.15 K): 10.429 ± 0.1 | relative permittivity ([3]; 298.15 K): 9.67 ± 0.097 | relative permittivity ([3]; 313.15 K): 8.952 ± 0.09

CCCCCl [1-chlorobutane]
relative permittivity ([3]; 283.15 K): 7.552 ± 0.076 | relative permittivity ([3]; 298.15 K): 7.157 ± 0.072 | relative permittivity ([3]; 313.15 K): 6.757 ± 0.068

CCCCCC [hexane] + CC(C)(C)Cl
relative permittivity ([1]; 283.15 K): 1.905 ± 0.019 | relative permittivity ([1]; 298.15 K): 1.892 ± 0.019 | relative permittivity ([1]; 313.15 K): 1.873 ± 0.019 | refractive index ([2]; 283.15 K): 1.3805 ± 0.00031 | refractive index ([2]; 298.15 K): 1.37223 ± 0.00031 | refractive index ([2]; 313.15 K): 1.36391 ± 0.00031

CCCCCCC [heptane] + CC(C)CCl
relative permittivity ([1]; 283.15 K): 1.943 ± 0.019 | relative permittivity ([1]; 298.15 K): 1.923 ± 0.019 | relative permittivity ([1]; 313.15 K): 1.902 ± 0.019 | refractive index ([2]; 283.15 K): 1.3929 ± 0.00031 | refractive index ([2]; 298.15 K): 1.3852 ± 0.00031 | refractive index ([2]; 313.15 K): 1.37735 ± 0.00031

CCCCCCC [heptane] + CC(C)(C)Cl
relative permittivity ([1]; 283.15 K): 1.943 ± 0.019 | relative permittivity ([1]; 298.15 K): 1.923 ± 0.019 | relative permittivity ([1]; 313.15 K): 1.902 ± 0.019 | refractive index ([2]; 283.15 K): 1.3929 ± 0.00031 | refractive index ([2]; 298.15 K): 1.3852 ± 0.00031 | refractive index ([2]; 313.15 K): 1.37735 ± 0.00031

CCCCCC [hexane] + CC(C)CCl
relative permittivity ([1]; 283.15 K): 1.905 ± 0.019 | relative permittivity ([1]; 298.15 K): 1.892 ± 0.019 | relative permittivity ([1]; 313.15 K): 1.873 ± 0.019 | refractive index ([2]; 283.15 K): 1.3805 ± 0.00031 | refractive index ([2]; 298.15 K): 1.37223 ± 0.00031 | refractive index ([2]; 313.15 K): 1.36391 ± 0.00031

CCCCCCC [heptane] + CCC(C)Cl
relative permittivity ([1]; 283.15 K): 1.943 ± 0.019 | relative permittivity ([1]; 298.15 K): 1.923 ± 0.019 | relative permittivity ([1]; 313.15 K): 1.902 ± 0.019 | refractive index ([2]; 283.15 K): 1.3929 ± 0.00031 | refractive index ([2]; 298.15 K): 1.3852 ± 0.00031 | refractive index ([2]; 313.15 K): 1.37735 ± 0.00031

CCC(C)Cl (configuration not stated) [2-chlorobutane]
relative permittivity ([3]; 283.15 K): 9.323 ± 0.093 | relative permittivity ([3]; 298.15 K): 8.652 ± 0.087 | relative permittivity ([3]; 313.15 K): 8.07 ± 0.081

CCCCCC [hexane]
relative permittivity ([3]; 283.15 K): 1.905 ± 0.019 | relative permittivity ([3]; 298.15 K): 1.892 ± 0.019 | relative permittivity ([3]; 313.15 K): 1.873 ± 0.019 | refractive index [4]: 1.37223 ± 0.00031

CC(C)CCl [1-chloro-2-methylpropane]
relative permittivity ([3]; 283.15 K): 7.472 ± 0.075 | relative permittivity ([3]; 298.15 K): 7.074 ± 0.071 | relative permittivity ([3]; 313.15 K): 6.657 ± 0.067

CCCCCC [hexane] + CCCCCl
relative permittivity ([1]; 283.15 K): 1.905 ± 0.019 | relative permittivity ([1]; 298.15 K): 1.892 ± 0.019 | relative permittivity ([1]; 313.15 K): 1.873 ± 0.019 | refractive index ([2]; 283.15 K): 1.3805 ± 0.00031 | refractive index ([2]; 298.15 K): 1.37223 ± 0.00031 | refractive index ([2]; 313.15 K): 1.36391 ± 0.00031

CCCCCCC [heptane]
relative permittivity ([3]; 283.15 K): 1.943 ± 0.019 | relative permittivity ([3]; 298.15 K): 1.923 ± 0.019 | relative permittivity ([3]; 313.15 K): 1.902 ± 0.019
